# Assay results as given in PubChem BioAssay AID1996.
# Conditions: buffer; pH 7.4; 200.0 µM
row,Compound,solubility kinetic
1,O=[N+]([O-])c1cc([N+](=O)[O-])c2cc(-c3cccnc3)[nH]c2c1,< 0.2 µg/mL
2,O=c1c2[nH]c3ccccc3c2nc2n1CCS2,4.5 µg/mL
3,O=C(NCc1ccc(Cl)cc1)c1nccnc1CO,40.5 µg/mL
4,NS(=O)(=O)c1ccc(NC(=O)c2ccc3c(c2)CCCC3)cc1,< 0.4 µg/mL
5,O=C(NCc1ccccc1)c1ccc(F)c(F)c1,35.5 µg/mL
6,CNc1snc(C)c1C(=O)OCC(=O)N(C)c1ccccc1,> 47.9 µg/mL
7,O=C(c1cc(-c2cccc(Cl)c2)on1)N1CCCC1,7.5 µg/mL
8,O=C1N=C(N2CCCCC2)S/C1=C\c1ccccc1F,4.7 µg/mL
9,O=c1[nH]c(=S)[nH]cc1S(=O)(=O)c1cccc(Cl)c1,> 45.4 µg/mL
10,Cc1ccc(S(=O)(=O)N2CCc3ccccc3C2)cc1,< 0.6 µg/mL
11,COc1cccc(-c2nc(-c3ccccc3)c(-c3ccccc3)[nH]2)c1OCC(=O)O,> 60.1 µg/mL
12,CCOC(=O)Cc1nc2nc(C)cc(C)n2n1,> 35.1 µg/mL
13,CCOc1ccc(N=C2NC(=O)SC2CC(=O)OC)cc1 (configuration not stated),12.4 µg/mL
14,CCNC(=O)c1cccc(NC(=O)C2CC(=O)N(CCc3ccccc3)C2)c1 (configuration not stated),> 56.9 µg/mL
15,Cl.OCCCNCc1ccc(-c2ccccc2)cc1,> 41.7 µg/mL
16,O=C(O)c1ccc(SCc2ccccc2)nc1,> 36.8 µg/mL
17,O=C(CCCOc1ccccc1)NNC(=O)c1ccncc1,> 44.9 µg/mL
18,CCN1CCN(c2nc(N(C)c3ccccc3)nc(N)c2[N+](=O)[O-])CC1,49.3 µg/mL
19,O=C(c1ccco1)N1CCC(N2CCN(c3ccccc3)CC2)CC1,43.8 µg/mL
20,CC1Oc2ccccc2N(CC(=O)NCCN2CCOCC2)C1=O (configuration not stated),> 50 µg/mL
21,CC(=NCCC1=CCCCC1)c1c(O)n(-c2ccccc2)c(=O)[nH]c1=O,10 µg/mL
22,Cc1ccc(OCC(=O)NCCNC(=O)c2ccccn2)cc1,46.9 µg/mL
23,CCOC1C(=O)NC(=O)N1Cc1ccccc1 (configuration not stated),29.8 µg/mL
24,O=C(COC(=O)c1ccccc1O)NCc1ccc2c(c1)OCO2,5.7 µg/mL

row,Compound,solubility kinetic
1,CC(=O)Nc1cccc(Oc2ccc3c(c2)C(=O)NC3=O)c1,> 44.4 µg/mL
2,O=[N+]([O-])c1cc(O)c(O)c([N+](=O)[O-])c1,> 30 µg/mL
3,O=C(O)C(=O)O.c1ccc(CNC23CC4CC(CC(C4)C2)C3)nc1,45.8 µg/mL
4,CCCCN(C(C)=O)C1CC(=O)N(c2ccc(OCCC)cc2)C1=O (configuration not stated),> 52 µg/mL
5,O=c1c2[nH]c3ccc(F)cc3c2ncn1CC1CCCO1 (configuration not stated),3.9 µg/mL
6,COC(=O)c1sccc1NC(=O)COc1cccc(C)c1,< 0.7 µg/mL
7,COc1cc(C(=O)OCC(=O)NCC2CCCO2)cc(OC)c1OC (configuration not stated),> 53 µg/mL
8,COc1cc(C)cc(CN2CC=C(c3ccccc3)CC2)c1O,12.8 µg/mL
9,Cc1csc(NC(=O)CCNC(=O)c2ccccc2Cl)n1,43.9 µg/mL
10,O=C(CCCN1C(=O)C2CC=CCC2C1=O)Nc1ccccc1F (configuration not stated),> 49.6 µg/mL
11,O=C(N/C(=C/c1cccs1)C(=O)N1CCCC1)c1ccccc1,46.5 µg/mL
12,Cc1cc(C)c2nc(N(CCN(C)C)C(=O)/C=C/c3cccs3)sc2c1.Cl,0.9 µg/mL
13,O=C(NC1CC1)c1cc(=S)[nH]c2ccccc12,> 36.6 µg/mL
14,CCOC(=O)c1c(NC(=O)c2ccncc2)sc(C)c1C,5 µg/mL
15,CC(NC(=O)c1cc2cc(Cl)ccc2oc1=N)c1ccccc1 (configuration not stated),4.2 µg/mL
16,CC(=O)N1C(=O)NC2=C(C(=O)CCC2)C1c1cccc([N+](=O)[O-])c1 (configuration not stated),> 49.4 µg/mL
17,CCN(CC)CCCNc1nc(C)cc(COC)c1C#N,> 43.6 µg/mL
18,Cc1c(C)n(CCc2ccccc2)c2ncnc(NCCCO)c12,48.3 µg/mL
19,Cc1ccccc1NC(=O)C(Cc1ccccc1)n1cccc1 (configuration not stated),7.4 µg/mL
20,CC(C)n1c(SCC(=O)NC2CC2)nnc1C1CC1,> 42.1 µg/mL
21,CC(C)(C)c1ccc(C(=O)NC(=O)COC(=O)c2ccc(Br)o2)cc1,12.5 µg/mL
22,O=C1NCCCN1Cc1ccc(Cl)cc1,> 33.7 µg/mL
23,Fc1ccc(CNc2ccc(N3CCN(Cc4ccccc4)CC3)cc2)cc1,14.6 µg/mL
24,COc1ccc(N(C(C)C(=O)N2CCCC2)S(C)(=O)=O)cc1 (configuration not stated),> 49 µg/mL

row,Compound,solubility kinetic
1,Cc1ccc(S(=O)(=O)N2CCOCC2)cc1C(=O)N1CCCC1,> 50.8 µg/mL
2,Cc1cc(NC(=O)c2sc3ccccc3c2O)no1,> 41.1 µg/mL
3,CCn1nc(C(=O)NNC(=O)C(Cc2ccccc2)NC(N)=O)c2ccccc2c1=O (configuration not stated),> 63.4 µg/mL
4,CC(C)CNC(=O)C1CCCN(C(=O)NCc2ccccc2)C1 (configuration not stated),> 47.6 µg/mL
5,O=C(C1CC(=O)N(c2ccccc2)C1)N1CCCCCC1 (configuration not stated),> 43 µg/mL
6,CC(Oc1ccc(Cl)cc1)C(=O)N1CCCc2ccccc21 (configuration not stated),2.1 µg/mL
7,O=C(Nc1ccccc1)C1CCCCN1S(=O)(=O)c1ccccc1 (configuration not stated),> 51.7 µg/mL
8,CSCCC(NS(=O)(=O)c1ccc(C)cc1C)C(=O)Nc1cccnc1 (configuration not stated),> 59 µg/mL
9,O=C(CN1CCN(Cc2cccc(F)c2)CC1)NCc1ccccc1,43.1 µg/mL
10,COc1ccc(-c2cc(C(=O)NC3CC3)c3ccccc3n2)cc1,1.6 µg/mL
11,CC(C)(CN1CCc2ccccc2C1)NS(=O)(=O)c1ccccc1,34.8 µg/mL
12,C=CCn1c(O)c(C=Nc2c(C)n(C)n(-c3ccccc3)c2=O)c(=O)[nH]c1=O,> 57.2 µg/mL
13,CCNC(=S)N1CCCC(c2nc3ccc(C)cc3[nH]2)C1 (configuration not stated),> 45.4 µg/mL
14,Cl.N=c1n(CCO)c2ccccc2n1CCN1CCCCC1,> 48.7 µg/mL
15,Cc1nc(C)c(C(=O)OCC(=O)Nc2ccccc2)s1,> 43.6 µg/mL
16,O=C(COC(=O)CNC(=O)c1ccc(Cl)cc1Cl)NC1CC1,> 51.8 µg/mL
17,O=C(O)c1cc(-c2cccs2)nc2ccc(F)cc12,> 41 µg/mL
18,O=C(c1cc2cccc([N+](=O)[O-])c2oc1=O)N1CCOCC1,40.6 µg/mL
19,O=C(CN1C(=O)NC2(CCc3ccccc32)C1=O)Nc1c(Cl)cccc1Cl (configuration not stated),> 60.6 µg/mL
20,CC(=O)C1=C(O)C(=O)N(c2ccc(O)cc2)C1c1ccc(F)cc1 (configuration not stated),> 49.1 µg/mL
21,CC(CC(=O)Nc1ccc2c(c1)OCO2)c1ccccc1 (configuration not stated),38.5 µg/mL
22,O=C(C1CCCCC1)N1CCN(c2nc(-c3ccc(F)cc3)cs2)CC1,1.5 µg/mL
23,Cc1ccc2ncnc(-c3ccccc3)c2c1,25.5 µg/mL
24,CC(=O)N1CCN(c2cc(N3CCCC3)c(F)cc2[N+](=O)[O-])CC1,> 50.5 µg/mL

row,Compound,solubility kinetic
1,COC(=O)c1nc2ccccn2c1F,> 29.1 µg/mL
2,CC(C)(C)c1ccc(OC(=O)N2CCOCC2)cc1,31.9 µg/mL
3,CCOc1ccc(C(=O)N[C@H](C(=O)Nc2ccc(S(=O)(=O)Nc3nccs3)cc2)C(C)C)cc1,62.3 µg/mL
4,NC(=O)C1CCN(C(=O)COc2ccc3c4c(c(=O)oc3c2)CCCC4)CC1,> 57.7 µg/mL
5,CC(C)CNC(=O)CCc1nc(-c2ccccc2)no1,37.7 µg/mL
6,O=C(CCOc1ccccc1)N1CCN(c2ccc(O)cc2)CC1,> 49 µg/mL
7,O=C(NCC(c1ccco1)N1CCCCC1)c1cccnc1 (configuration not stated),> 44.9 µg/mL
8,COc1cccc(C(=S)N2CCCC2)c1OC,35.3 µg/mL
9,COc1ccc(C(=O)OCC(=O)c2ccc3c(c2)NC(=O)CO3)cc1S(=O)(=O)N1CCOCC1,11.3 µg/mL
10,CCCN(c1ccc(C)cc1)c1nc(=O)c2cccnc2s1,3 µg/mL
11,Cl.OCCNCCNCc1ccccc1OCc1ccccc1,> 50.5 µg/mL
12,COc1ccccc1CN(C)CC(=O)Nc1cccc(S(=O)(=O)N2CCCC2)c1.O=C(O)C(=O)O,57.3 µg/mL
13,CCCCn1c(N)c(N(CC)C(=O)c2cccc(F)c2)c(=O)[nH]c1=O,52.1 µg/mL
14,C=CCn1c(=O)c2ccccc2n2c(SCC(=O)N(C)C)nnc12,> 51.5 µg/mL
15,CCOc1ccc(NC(=O)CN(C)C(=O)C2CCCC2)cc1OCC,37.6 µg/mL
16,O=C(CSc1nccc(=O)[nH]1)c1cc2ccccc2o1,> 42.9 µg/mL
17,O=C(NC(=S)Nc1ccc([N+](=O)[O-])cc1O)C1CCCCC1,3.5 µg/mL
18,Cc1nc2c(c(=O)c3ccccc3n2C)c(=O)n1-c1ccccc1,46.2 µg/mL
19,CC1CCCN(S(=O)(=O)c2ccc([N+](=O)[O-])cc2)C1 (configuration not stated),2.9 µg/mL
20,O=C(NC1CCCc2ccccc21)c1ccccn1 (configuration not stated),35.9 µg/mL
21,Oc1c(Cl)cc(Cl)cc1C=Nc1ccc(N2CCOCC2)cc1,8.1 µg/mL
22,Cc1ccc(C)c(-c2csc(NC(=O)C3=COCCO3)n2)c1,11.3 µg/mL
23,Cc1ccc(C(=O)Cn2cncn2)cc1.Cl,> 35.7 µg/mL
24,CSc1nc2ccccc2c(=O)n1C1CCOC(C)(C)C1 (configuration not stated),28.4 µg/mL

row,Compound,solubility kinetic
1,COc1ccc(CNCC(O)COc2ccc(C)cc2[N+](=O)[O-])cc1 (configuration not stated),> 52 µg/mL
2,N#CCCN(C(=O)COC(=O)c1ccc(S(=O)(=O)N2CCOCC2)cc1)c1ccccc1,8.2 µg/mL
3,CC(=O)C1=C(O)C(=O)N(CCO)C1c1ccccc1 (configuration not stated),> 39.2 µg/mL
4,O=C(Nc1nc2ccc(Br)cc2s1)c1ccco1,< 0.3 µg/mL
5,O=C(c1ccc(=O)oc1)N1CCC(C(O)(c2ccccc2)c2ccccc2)CC1,57.3 µg/mL
6,O=C(CNS(=O)(=O)c1ccccc1)N1CCCC1,> 40.2 µg/mL
7,CC1CC(=O)C2=C(C1)Nc1nc3ccccc3n1C2c1cccnc1 (configuration not stated),3.3 µg/mL
8,COc1cccc(-c2ccc3c(N)c(C(=O)NC4CC4)sc3n2)c1,15.1 µg/mL
9,CC1(C)CC(=O)C=C(Nc2ccc(Cl)c(Br)c2)C1,8.5 µg/mL
10,O=C(CSC(=S)N1CCCCC1)c1c(F)cccc1F,4 µg/mL
11,O=[N+]([O-])c1ccc(NCCN2CCOCC2)c([N+](=O)[O-])c1,> 44.4 µg/mL
12,COc1cc(C(=O)N2CCCN(C)CC2)cc(OC)c1C.Cl,> 49.3 µg/mL
13,CCN1CCN(C(=O)C23CCC(C)(C(=O)C2Br)C3(C)C)CC1 (configuration not stated),> 55.7 µg/mL
14,CC1(/[N+]([O-])=C/c2cccc(Cl)c2)CCCCC1=O (configuration not stated),36.2 µg/mL
15,Cc1cc(C)c(S(=O)(=O)Nc2cnc3ccccc3c2)c(C)c1,19.2 µg/mL
16,COc1cccc(NC(=O)Cn2cc(C(=O)C3CC3)c3ccccc32)c1,0.8 µg/mL
17,O=C(COC(=O)c1ccc(Cl)cc1[N+](=O)[O-])NCc1ccco1,> 50.8 µg/mL
18,Cc1nnc(SC(C)C#N)n1-c1ccccc1 (configuration not stated),> 36.6 µg/mL
19,CCOC(=O)c1[nH]c(C)c(CC(C)C)c1C,24 µg/mL
20,CCOc1ccc(NC(=O)CC(Cc2cc(C)cc(C)c2)C(=O)O)cc1 (configuration not stated),> 53.3 µg/mL
21,CC(C)CNC(=O)CC1Nc2ccccc2NC1=O (configuration not stated),38.8 µg/mL
